Data taken from patent US20250120967A1, “TYROSINE KINASES INHIBITORS AND USES THEREOF” (GREAT NOVEL THERAPEUTICS BIOTECH & MEDICALS CORPORATION, priority 2023, published 2025).

How the values were obtained:
MDA-MB-453 cells = experiment: In vitro cytotoxicity assay (MTT, 72 h); type: cell-based; conditions: Homo sapiens, growth inhibition
Method: (§1) Six different cell lines were used, including human breast cancer cell lines MDA-MB-231 (6×10^3) and MDA-MB-453 (2.4×10^4), human colorectal cell line SW48 (2.4×10^4), human breast epithelial cell line M10 (6×10^3), human cancer cell line A549 (1.4×10^3), and murine colorectal carcinoma tumors CT26 (6×10^3), which were seeded in a 96-well plate. […] After 72 h, MTT assay (Cayman™) was used to determine the cellular viability.

M10 cells = experiment: In vitro cytotoxicity assay (MTT, 72 h); type: cell-based; conditions: growth inhibition, human normal cell line
Method: as §1

MDA-MB-231 cells = experiment: In vitro cytotoxicity assay (MTT, 72 h); type: cell-based; conditions: Homo sapiens, growth inhibition
Method: as §1

A549 cells = experiment: In vitro cytotoxicity assay (MTT, 72 h); type: cell-based; conditions: Homo sapiens, growth inhibition
Method: as §1

SW48 cells = experiment: In vitro cytotoxicity assay (MTT, 72 h); type: cell-based; conditions: Homo sapiens, growth inhibition
Method: as §1

CT-26 cells = experiment: In vitro cytotoxicity assay (MTT, 72 h); type: cell-based, murine; conditions: Mus musculus, CT26, growth inhibition
Method: as §1

CT26 tumor = experiment: Experimental tumor model and therapies, CT26 tumor-bearing mice;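 further: male Balb/c mice bearing CT26 grafts in the back, treated once tumors reached roughly 250–300 mm^3, tumor volume measured twice weekly, response graded by fold growth after treatment end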
Method: LLC1 was grown at 37° C. under humidified air supplemented with CO2 in DMEM (#10-013-CM, Corning®) containing 10% heat inactivated fetal calf serum, and 1× concentration of MycoZap Antibiotics. CT26 was grown at 37° C. under humidified air supplemented with CO2 in RPMI1640 (cat. #10-040-CM, Corning®) containing 10% heat inactivated fetal calf serum, and 1× concentration of MycoZap Antibiotics. After the cancer cell culture was completed, it was implanted (1×10^6 cells/mouse) into the back of the mouse for growth.
Six- to eight-week-old male Balb/c mice (National Laboratory Animal Center, Taiwan) were used for all animal experiments. […] Tumors were allowed to grow for 10-12 days (tumor size about 250-300 mm^3) before randomization and treatment. The tumor volume of the mice was measured once every three or four days (twice/week). Animals were euthanized when tumors reached more than 3000 mm^3 in diameter. […] Relapse/recurrence was defined as when tumor growth reappeared and tumor size reached at least 5 fold in mice with CR or PR response after secondary tumor assessment. In this study, we defined Complete Response (CR, <0.5 time tumor growth in the tumor bearing mice at tumor assessment after the end of treatment); Partial Response (PR, tumor size ≥0.5 time tumor growth, but <1 time tumor growth in the tumor bearing mice at tumor assessment after the end of treatment); Stable Disease (SD, ≥1 time tumor growth, but <5 times tumor growth in the tumor bearing mice at tumor assessment after the end of treatment); and Progressive Disease (PD, ≥5 times tumor growth in the tumor bearing mice at tumor assessment after the end of treatment) for the evaluation of treatment efficacy.

[1] = FIG. 3E, oral 12 days, Cabozantinib 30 mg/kg, Cbo-20 30 mg/kg, GNTbm-38-K30 40 mg/kg
[2] = FIG. 7E, Cbo-23-K30 30 mg/kg, Zanzalintinib hemifumarate 30 mg/kg, GNTbm-38-2HCL 40 mg/kg
[3] = FIG. 5E, Cbo-23 30 mg/kg, Regorafenib 30 mg/kg, GNTbm-38-K30 20 mg/kg in combination, 5 mg/kg alone

Row | Compound | IC50 (MDA-MB-453 cells) [µM] | IC50 (M10 cells) [µM] | IC50 (MDA-MB-231 cells) [µM] | IC50 (A549 cells) [µM] | IC50 (SW48 cells) [µM] | IC50 (CT-26 cells) [µM] | further results
1 | COc1cc2nccc(Oc3ccc(C(=O)NC4(C(=O)Nc5ccc(F)cc5)CC4)cc3F)c2cc1OC [Cbo-03, 4-((6,7-diMethoxyquinolin-4-yl)oxy)-3-fluoro-N-(1-((4-fluorophenyl)carbamoyl)cyclopropyl)benzamide] | 17.9 ± 1.34 | 16.2 ± 1.44 | 12.7 ± 1.37 | 12.8 ± 6.7 | > 25 |  | 
2 | COc1cc2nccc(Oc3ccc(NC(=O)C4(NC(=O)c5ccc(F)cc5)CC4)cc3F)c2cc1Oc1ccc(N)cc1 [Cbo-05] | 8.92 ± 1.49 | 1.17 ± 0.053 | 7.84 ± 1.34 | 2.51 ± 0.21 | 1.86 ± 0.059 | 8.9 ± 0.61 | 
3 | COc1cc2nccc(Oc3ccc(NC(=O)C4(NC(=O)c5ccc(F)cc5)CC4)cc3F)c2cc1Oc1ccc(N)cn1 [Cbo-06] | > 25 | 5.59 ± 0.46 | > 25 | 6.89 ± 1.61 | 8.76 ± 0.52 |  | 
4 | COc1cc2nccc(Oc3ccc(NC(=O)C4(NC(=O)c5ccc(F)cc5)CC4)cc3F)c2cc1O [Cbo-07, 4-Fluoro-N-(1-((3-fluoro-4-((6-hydroxy-7-methoxyquinolin-4-yl)oxy)phenyl)carbamoyl)cyclopropyl)benzamide] | > 25 | 4.44 ± 1.51 | 5.07 ± 1.04 | 1.49 ± 0.21 | 0.74 ± 0.13 |  | 
5 | COc1cc2nccc(Oc3ccc(NC(=O)C4(NC(=O)c5ccc(F)cc5)CC4)cc3F)c2cc1Oc1cccc(N)c1 [Cbo-08] | > 25 | 1.83 ± 0.72 | > 25 | 2.6 ± 1.82 | 3.51 ± 0.48 |  | 
6 | COc1cc2nccc(Oc3ccc(NC(=O)C4(NC(=O)c5ccc(F)cc5)CC4)cc3F)c2cc1Oc1ccc(N)cc1C [Cbo-09] | 9.28 ± 0.66 | 0.99 ± 0.044 | 12.6 ± 0.98 | 6.89 ± 1.61 | 1.02 ± 0.008 |  | 
7 | COc1cc2nccc(Oc3ccc(N(C(=O)C4(C(N)=O)CC4)c4ccc(F)cc4)cc3F)c2cc1OC [Cbo-20, N-(4-((6,7-dimethoxyquinolin-4-yl)oxy)-3-fluorophenyl)-N-(4-fluorophenyl)cyclo-propane-1,1-dicarboxamide] | 14.1 ± 2.06 | 5.47 ± 1.73 | 4.81 ± 1.16 | 3.34 ± 0.69 | 2.51 ± 0.18 | 8.89 ± 0.24 | CR (number of mice) (CT26 tumor; [1]): 2; ORR (CT26 tumor; [1]): 50%; PD (number of mice) (CT26 tumor; [1]): 2; PR (number of mice) (CT26 tumor; [1]): 2; Survival Rate (CT26 tumor; FIG. 3F, Cabozantinib 30 mg/kg, Cbo-20 30 mg/kg, GNTbm-38-K30 40 mg/kg): 25%; recurrence rate (CT26 tumor; FIG. 3G, day 60, Cabozantinib 30 mg/kg, Cbo-20 30 mg/kg, GNTbm-38-K30 40 mg/kg): 75%
8 | CC(CN)NC(=O)c1cc(Oc2ccc(N(C(=O)C3(C(N)=O)CC3)c3ccc(F)cc3)cc2F)ccn1 (centres unmarked) [Cbo-22, N-(4-((2-((1-aminopropan-2-yl)carbamoyl)pyridin-4-yl)oxy)-3-fluorophenyl)-N-(4-fluorophenyl)cyclopropane-1,1-dicarboxamide] | > 25 | 15.1 ± 0.44 | 16.1 ± 0.19 | 11.2 ± 1.18 | 21.9 ± 0.96 | > 25 | ORR (CT26 tumor; FIG. 4D, Cabozantinib 30 mg/kg, Cbo-22 30 mg/kg, GNTbm-38-K30 40 mg/kg): 0%; Survival Rate (CT26 tumor; FIG. 4E, Cabozantinib 30 mg/kg, Cbo-22 30 mg/kg, GNTbm-38-K30 40 mg/kg): 0%
9 | COc1cc2nccc(Oc3ccc(NC(=O)C4(C(=O)Nc5ccc(F)cc5)CC4)cc3F)c2cc1C(=O)NC(C)CN (centres unmarked) [Cbo-24, O-phenyl-N-(4-fluorophenyl)cyclopropane-1,1-dicarboxamide] | 17 ± 0.96 | > 25 | 15.7 ± 0.33 | 16.2 ± 0.95 | 8.75 ± 0.55 | > 25 | 
10 | Nc1ccccc1NC(=O)c1ccc(NC(=O)C/C=C/c2cccnc2)cc1 [GNTbm-38-2HCL, (E)-N-(2-aminophenyl)-4-(4-(pyridin-3-yl)but-3-enamido)benzamide] |  |  |  |  |  |  | CR (number of mice) (CT26 tumor; [2]): 0; ORR (CT26 tumor; [2]): 0%; PD (number of mice) (CT26 tumor; [2]): 9; PR (number of mice) (CT26 tumor; [2]): 0
11 | CNC(=O)c1cc(Oc2ccc(NC(=O)Nc3ccc(Cl)c(C(F)(F)F)c3)c(F)c2)ccn1 [Regorafenib] |  |  |  |  |  |  | CR (number of mice) (CT26 tumor; [3]): 0; ORR (CT26 tumor; [3]): 0%; PD (number of mice) (CT26 tumor; [3]): 7; PR (number of mice) (CT26 tumor; [3]): 0; Survival Rate (CT26 tumor; FIG. 5F, Cbo-23 30 mg/kg, Regorafenib 30 mg/kg, GNTbm-38-K30 20 mg/kg in combination, 5 mg/kg alone): 0%
12 | Zanzalintinib hemifumarate |  |  |  |  |  |  | CR (number of mice) (CT26 tumor; [2]): 0; ORR (CT26 tumor; [2]): 0%; PD (number of mice) (CT26 tumor; [2]): 9; PR (number of mice) (CT26 tumor; [2]): 0; tumor inhibition rate at day 28 (CT26 tumor; FIGS. 7B, 7C, Cbo-23-K30 30 mg/kg, Zanzalintinib hemifumarate 30 mg/kg, GNTbm-38-2HCL 40 mg/kg): 2%
